Key:
[1] = 101 kPa, Liquid, Pycnometric method
[2] = xn = mol fraction of the nth substance listed; conditions: 101 kPa, Liquid, Pycnometric method

c1ccccc1 [benzene]
[1]
Conditions	mass density [kg/m3]
303.15 K	868.1
313.15 K	857.4
323.15 K	846.6

c1ccccc1 [benzene] + CCC(C)=O
[2], x2 = 0
Conditions	mass density [kg/m3]
303.15 K	868.1
313.15 K	857.4
323.15 K	846.6

CCC(C)=O [butanone]
[1]
Conditions	mass density [kg/m3]
303.15 K	794.6
313.15 K	784
323.15 K	773.3

CCC(C)=O [butanone] + C1CCCCC1
mass density [kg/m3], [2]
Conditions	x1 = 0.1066	x1 = 0.2093	x1 = 0.3084	x1 = 0.4042	x1 = 0.5064	x1 = 0.6055	x1 = 0.7007	x1 = 0.8015	x1 = 0.907	x1 = 1
303.15 K	768	768.3	769.5	771.3	773.6	776.2	779.8	784	789.6	794.6
313.15 K	758.3	757.4	758.2	759.9	762.4	765.1	769.2	772.7	777.8	784
323.15 K	747.4	746.5	747.3	749.2	751.3	754.4	757.8	761.7	767.2	773.3

CCC(C)=O [butanone] + CCCCCC
mass density [kg/m3], [2]
Conditions	x1 = 0.1057	x1 = 0.2048	x1 = 0.3035	x1 = 0.4071	x1 = 0.5035	x1 = 0.6029	x1 = 0.7042	x1 = 0.8059	x1 = 0.9033	x1 = 1
303.15 K	660	670	680.6	692.9	706	720.7	736.8	754.9	774	794.6
313.15 K	650.4	659	669.5	682	694.7	709.2	725.3	742.9	763	784
323.15 K	639.6	648	658.5	670.4	683.8	698.2	714.2	732.2	752.3	773.3

CCC(C)=O [butanone] + c1ccccc1
mass density [kg/m3], [2]
Conditions	x1 = 0.101	x1 = 0.1999	x1 = 0.2988	x1 = 0.3969	x1 = 0.4996	x1 = 0.5988	x1 = 0.6993	x1 = 0.7931	x1 = 0.8961	x1 = 1
303.15 K	861.2	854.2	847.1	839.9	832.7	825.2	817.5	809.9	802.2	794.6
313.15 K	850.6	843.5	836.6	829.3	822.1	814.6	806.9	799.4	791.7	784
323.15 K	839.9	832.9	825.9	818.7	811.5	803.9	796.4	788.9	781.1	773.3

C1CCCCC1 [cyclohexane]
[1]
Conditions	mass density [kg/m3]
303.15 K	768.9
313.15 K	759.2
323.15 K	748.7

C1CCCCC1 [cyclohexane] + CCC(C)=O
[2], x2 = 0
Conditions	mass density [kg/m3]
303.15 K	768.9
313.15 K	759.2
323.15 K	748.7

CCCCCC [hexane]
[1]
Conditions	mass density [kg/m3]
303.15 K	650.9
313.15 K	641.7
323.15 K	630.9

CCCCCC [hexane] + CCC(C)=O
[2], x2 = 0
Conditions	mass density [kg/m3]
303.15 K	650.9
313.15 K	641.7
323.15 K	630.9

— the NIST ThermoML archive (doi:10.1021/je800883b)
